Experimental data reported in patent US3955959A, “Herbicide for use in transplanted rice” (priority 1974, dated 1976).

Key:
[1] = system: transplanted rice; assay: Example 1 field test, rice injury; assay type: in vivo, rice (Watanabe variety)
Description: In the field test 48 day-old seedlings (Watanabe variety) were transplanted to plots 2.5 × 6 m. seeded with the weed seeds indicated in Table 1. At 5 and 10 DAT periods, the herbicides were applied to the plants (now at the 1.2 and 2.0 leaf stage, respectively, of grass weed) at the indicated rate in kilograms per hectare (kg/ha). The weed control and rice injury results for 3 replications are reported in percentages as of the indicated times of observation. The percentages given in the "Perennials" column are based on the weight of the weeds at 63 DAT, i.e., 42 gms/3.6 m^2 for the weedy check.

[2] = system: transplanted rice (ordinary and infant seedlings); assay: Example 5 field test, rice yield; assay type: in vivo; details: 1.5 kg/ha, 7 DAT
Protocol: (§1) In the tests described in the tables below, the herbicides were formulated and used in granular form in conventional manner. […] The commercial herbicide used was a granular product having 5% active ingredient.
(§2) In the field tests of the herbicide of this invention with transplanted rice, the rice seedlings were grown in conventional manner, by seeding the rice in a typical seedbed of sandy loam to clay soil of the country wherein the test was conducted. For laboratory and greenhouse work the seedlings were obtained by seeding rice in a mixture of soil, e.g., Ray silt loam, and peat in wood flats. For purposes of testing the herbicides on younger rice seedlings (infant or Dapog) the rice was usually allowed to grow for 6-15 days before lifting for transplanting. Older (ordinary) rice plants were usually grown for a period of about 2-3 weeks, or as much as about 7 weeks before lifting. Since the period of growth is dependent upon climatic conditions, a better measure of when to transplant the rice seedling is the leaf stage of growth; for infant or Dapog rice the seedling is lifted at the 1.5-2 leaf stage of growth, and for ordinary seedlings at the 2.5-5 leaf stage. The seedlings were then transplanted to the test plots for evaluation of the herbicide for injury against weed species present with the transplanted rice. The herbicides were then applied to the growth medium of the weeds and transplant rice, either preemergent or postemergent with respect to the weeds and postemergent with respect to the transplanted rice. Application times are designated in the tables as "DAT", meaning "days after transplant". Application rates given in the tables refer to the amount of active ingredient used.
(§3) The rice seedlings were grown to the 1.7 leaf stage for infant seedlings and to the 5.5 leaf stage for ordinary seedlings. Two days after puddling the soil in which the seedlings were to be transplanted, both infant and ordinary seedlings were transplanted into plots 8.5 m^2.
(§4) The weed symbol "Obw" represents "other broadleaf weeds" of unspecified identity. Results presented in Table 5 represent the average of 2 replications.

[3] = system: transplanted rice; assay: Example 2 field test, rice yield; assay type: in vivo, rice (Tainan No. 5, japonica)
Protocol: as §1, §2
(§5) Rice seedlings (ordinary) of Tainan No. 5 variety (japonica) were transplanted at 19 days of growth. Granular formulations of Herbicides A and B were applied at the 1 leaf stage of grass weed (4 DAT) and 2.5 leaf stage of grass weed (10 DAT). Observations were made at 63 DAT and results reported in Table 2 as an average of 3 replications.

[4] = system: Monochoria vaginalis; assay: Example 2 field test, weed control, Chia Yi, Taiwan; assay type: in vivo; details: obs. 63 DAT
Protocol: In the field tests of the herbicide of this invention with transplanted rice, the rice seedlings were grown in conventional manner, by seeding the rice in a typical seedbed of sandy loam to clay soil of the country wherein the test was conducted. For laboratory and greenhouse work the seedlings were obtained by seeding rice in a mixture of soil, e.g., Ray silt loam, and peat in wood flats. For purposes of testing the herbicides on younger rice seedlings (infant or Dapog) the rice was usually allowed to grow for 6-15 days before lifting for transplanting. Older (ordinary) rice plants were usually grown for a period of about 2-3 weeks, or as much as about 7 weeks before lifting. Since the period of growth is dependent upon climatic conditions, a better measure of when to transplant the rice seedling is the leaf stage of growth; for infant or Dapog rice the seedling is lifted at the 1.5-2 leaf stage of growth, and for ordinary seedlings at the 2.5-5 leaf stage. The seedlings were then transplanted to the test plots for evaluation of the herbicide for injury against weed species present with the transplanted rice. The herbicides were then applied to the growth medium of the weeds and transplant rice, either preemergent or postemergent with respect to the weeds and postemergent with respect to the transplanted rice. […] Application rates given in the tables refer to the amount of active ingredient used.

[5] = system: Broadleaf: Mv, Sz (Monochoria vaginalis, Sphenoclea zeylanica); assay: Example 4 field test on ordinary rice, weed control, Munoz, Philippines; assay type: in vivo, Monochoria vaginalis and Sphenoclea zeylanica; details: obs. 36 DAT
Description: Treatments were replicated four times.

[6] = system: weeds in upland direct-seeded rice; assay: Example 7 overall; assay type: in vivo; details: particular spectrum of weeds
Protocol: In a further comparative study of the preemergence activity of Herbicides A and B, a variety of weeds and upland direct-seeded rice were tested under greenhouse conditions. The present invention is not concerned with the use of Herbicide A in direct-seeded rice. The primary purpose of the experimental work in this example is to compare relative herbicidal activity of Herbicides A and B against the weeds shown in Table 7; most of these weeds were not available for tests with transplanted rice. Although the relative selectivity of these herbicides in upland rice is also evident, that aspect of the tests is more or less incidental to the purpose of this example.
In this example, rice seeds and seeds of the weeds shown in Table 7 were sown in Ray silt loam soil at a depth of 0.5 inch (1.27 cm) in containers for the soil in a greenhouse. Herbicides A and B were applied to the surface of the soil at a spray volume equivalent to 20 gals/acre (187.1 liters/hectare), followed by 0.5 in (1.27 cm) of overhead irrigation. Temperature and relative humidity in the greenhouse were on the order of 85°F (29°C) and 75%, respectively. Observations were made at 21-28 days after seeding. […]

[7] = system: Ann. Cyp (Cyperus spp); assay: Example 5 field test, weed control, JAAPR, Japan; details: 1.5 kg/ha, 7 DAT
Protocol: as §1, §2, §3, §4

[8] = system: transplanted rice; assay: Example 2 field test, crop injury; details: obs. 63 DAT
Protocol: as §1, §2, §5

## CCCCOCN(C(=O)CCl)c1c(CC)cccc1CC [Herbicide B, n-(butoxymethyl)-2',6'-diethyl-2-chloroacetanilide, reference compound]
[1]; 5 DAT, 1.0 kg/ha, obs. 21 DAT
  % Rice Injury: 0%
[1]; 5 DAT, 1.0 kg/ha, obs. 42 DAT
  % Rice Injury: 0%
[1]; 5 DAT, 1.5 kg/ha, obs. 21 DAT
  % Rice Injury: 0%
[1]; 5 DAT, 1.5 kg/ha, obs. 42 DAT
  % Rice Injury: 0%
[1]; 5 DAT, 3.0 kg/ha, obs. 21 DAT
  % Rice Injury: 5%
[1]; 5 DAT, 3.0 kg/ha, obs. 42 DAT
  % Rice Injury: 0%
[1]; 10 DAT, 1.0 kg/ha, obs. 21 DAT
  % Rice Injury: 0%
[1]; 10 DAT, 1.0 kg/ha, obs. 42 DAT
  % Rice Injury: 0%
[1]; 10 DAT, 1.5 kg/ha, obs. 21 DAT
  % Rice Injury: 0%
[1]; 10 DAT, 1.5 kg/ha, obs. 42 DAT
  % Rice Injury: 0%
[1]; 10 DAT, 3.0 kg/ha, obs. 21 DAT
  % Rice Injury: 0%
[1]; 10 DAT, 3.0 kg/ha, obs. 42 DAT
  % Rice Injury: 0%
[2]; infant seedlings
  Yield % of H.W.C.: 99%
[2]; ordinary seedlings
  Yield % of H.W.C.: 92%
[3]; 4 DAT, 1.0 kg/ha
  Yield (% of H.W. Check): 110%
[3]; 4 DAT, 1.5 kg/ha
  Yield (% of H.W. Check): 103%
[3]; 4 DAT, 3.0 kg/ha
  Yield (% of H.W. Check): 99%
[3]; 10 DAT, 1.0 kg/ha
  Yield (% of H.W. Check): 97%
[3]; 10 DAT, 1.5 kg/ha
  Yield (% of H.W. Check): 98%
[3]; 10 DAT, 3.0 kg/ha
  Yield (% of H.W. Check): 99%
[4]; 4 DAT, 1.0 kg/ha
  % Weed Control (Monochoria Vaginalis): 77%
[4]; 4 DAT, 1.5 kg/ha
  % Weed Control (Monochoria Vaginalis): 94%
[4]; 4 DAT, 3.0 kg/ha
  % Weed Control (Monochoria Vaginalis): 99%
[4]; 10 DAT, 1.0 kg/ha
  % Weed Control (Monochoria Vaginalis): 65%
[4]; 10 DAT, 1.5 kg/ha
  % Weed Control (Monochoria Vaginalis): 78%
[4]; 10 DAT, 3.0 kg/ha
  % Weed Control (Monochoria Vaginalis): 89%
[5]; 5 DAT, 1.0 kg/ha
  % Weed control, Broadleaf (Mv,Sz): 100%
[5]; 5 DAT, 1.5 kg/ha
  % Weed control, Broadleaf (Mv,Sz): 100%
[5]; 5 DAT, 3.0 kg/ha
  % Weed control, Broadleaf (Mv,Sz): 100%
[5]; 14 DAT, 1.0 kg/ha
  % Weed control, Broadleaf (Mv,Sz): 0%
[5]; 14 DAT, 1.5 kg/ha
  % Weed control, Broadleaf (Mv,Sz): 0%
[5]; 14 DAT, 3.0 kg/ha
  % Weed control, Broadleaf (Mv,Sz): 50%
[6]
  selectivity, A vs B, upland direct-seeded rice: slightly more selective
[7]
  control of Ann. Cyp in words: substantially complete control
[7]; infant seedlings
  % Weed Control (Ann. Cyp): 100%
[7]; ordinary seedlings
  % Weed Control (Ann. Cyp): 99%
[8]; 4 DAT, 1.0 kg/ha
  % Crop Injury, stand: 0%
  % Crop Injury, vigor: 0%
[8]; 4 DAT, 1.5 kg/ha
  % Crop Injury, stand: 0%
  % Crop Injury, vigor: 0%
[8]; 4 DAT, 3.0 kg/ha
  % Crop Injury, stand: 0%
  % Crop Injury, vigor: 0%
[8]; 10 DAT, 1.0 kg/ha
  % Crop Injury, stand: 0%
  % Crop Injury, vigor: 0%
[8]; 10 DAT, 1.5 kg/ha
  % Crop Injury, stand: 0%
  % Crop Injury, vigor: 0%
[8]; 10 DAT, 3.0 kg/ha
  % Crop Injury, stand: 0%
  % Crop Injury, vigor: 0%
